From the supplement of paper PMC10307832

How the values were obtained:
Assay in all cases: relative viability (nuclei count vs DMSO), 5 days (fraction); higher = more cells survive
[1] = compound: NS(=O)(=O)OC[C@@H]1C[C@@H](n2ccc3c(N[C@H]4CCc5ccccc54)ncnc32)C[C@@H]1O [MLN4924] + CC(=O)Nc1cccc(-n2c(=O)n(C3CC3)c(=O)c3c(Nc4ccc(I)cc4F)n(C)c(=O)c(C)c32)c1 [Trametinib] (partner 0.02 µM)
Method in brief: (§1)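 Relative viability was taken as the ratio of nuclei in treated wells to nuclei in vehicle wells. Lung cancer cell lines in 1536-well plates received compounds by pin tool one day after seeding, either one drug alone or a fixed anchor-drug dose plus five library-drug doses (not always all listed) in √10 steps. Nuclei were counted on 4× images after 5 days of treatment, and values are medians of duplicate plates.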

[2] = compound: C1CC(C1)(C(=O)O)C(=O)O.[NH2-].[NH2-].[Pt+2] [Carboplatin] + CCNC(=O)c1noc(-c2cc(C(C)C)c(O)cc2O)c1-c1ccc(CN2CCOCC2)cc1 [Luminespib] (partner 0.01 µM)
Method in brief: as §1

[3] = compound: C1CC(C1)(C(=O)O)C(=O)O.[NH2-].[NH2-].[Pt+2] [Carboplatin] + CS(=O)(=O)N1CCN(Cc2cc3nc(-c4cccc5[nH]ncc45)nc(N4CCOCC4)c3s2)CC1 [Pictilisib] (partner 1 µM)
Method in brief: as §1

[4] = compound: C1CC(C1)(C(=O)O)C(=O)O.[NH2-].[NH2-].[Pt+2] [Carboplatin] + CC(C)C[C@H](NC(=O)[C@H](Cc1ccccc1)NC(=O)c1cnccn1)B(O)O [Bortezomib] (partner 0.002 µM)
Method in brief: as §1

| Cell Line | relative viability ([1]; first compound 0.04 µM) | relative viability ([1]; first compound 0.1265 µM) | relative viability ([1]; first compound 0.4 µM) | relative viability ([1]; first compound 1.265 µM) | relative viability ([1]; first compound 4 µM) | relative viability ([2]; first compound 0.08 µM) | relative viability ([2]; first compound 0.253 µM) | relative viability ([2]; first compound 0.8 µM) | relative viability ([2]; first compound 2.53 µM) | relative viability ([2]; first compound 8 µM) | relative viability ([3]; first compound 0.08 µM) | relative viability ([3]; first compound 0.253 µM) | relative viability ([3]; first compound 0.8 µM) | relative viability ([3]; first compound 2.53 µM) | relative viability ([3]; first compound 8 µM) | relative viability ([4]; first compound 0.08 µM) | relative viability ([4]; first compound 0.253 µM) | relative viability ([4]; first compound 0.8 µM) | relative viability ([4]; first compound 2.53 µM) | relative viability ([4]; first compound 8 µM) |
| --- | --- | --- | --- | --- | --- | --- | --- | --- | --- | --- | --- | --- | --- | --- | --- | --- | --- | --- | --- | --- |
| LK-2 | 0.699 | 0.677 | 0.618 | 0.245 | 0.212 | 0.177 | 0.198 | 0.179 | 0.16 | 0.178 | 0.707 | 0.643 | 0.462 | 0.401 | 0.613 | – | – | – | – | – |
| IA-LM | – | – | – | – | – | – | – | – | – | – | 0.404 | 0.373 | 0.353 | 0.261 | 0.242 | 0.804 | 0.836 | 0.633 | 0.792 | 0.535 |
| NCI-H1944 | 0.388 | 0.353 | 0.329 | 0.193 | 0.186 | 0.881 | 0.661 | 0.661 | 0.452 | 0.389 | 0.338 | 0.321 | 0.336 | 0.327 | 0.342 | – | – | – | – | – |
| EBC-1 | – | – | – | – | – | – | – | – | – | – | 0.392 | 0.344 | 0.363 | 0.365 | 0.358 | 0.528 | 0.507 | 0.551 | 0.518 | 0.438 |
| NCI-H2170 | 0.879 | 0.537 | 0.467 | 0.155 | 0.126 | 0.911 | 0.783 | 0.47 | 0.351 | 0.283 | 0.361 | 0.266 | 0.357 | 0.33 | 0.283 | – | – | – | – | – |
| SW 900 | – | 0.764 | 0.449 | 0.291 | 0.218 | 0.16 | 0.168 | 0.162 | 0.161 | 0.15 | – | – | – | – | – | – | – | – | – | – |
| NCI-H1703 | – | – | – | – | – | – | – | – | – | – | 0.261 | 0.229 | 0.231 | 0.251 | 0.245 | 0.494 | 0.503 | 0.347 | 0.425 | 0.34 |
| NCI-H1395 | 1.07 | 1.02 | 0.836 | 0.392 | 0.385 | 0.864 | 0.543 | 0.731 | 0.458 | 0.331 | 0.722 | 0.548 | 0.854 | 0.548 | 0.513 | – | – | – | – | – |
| NCI-H1563 | – | – | – | – | – | 0.526 | 0.506 | 0.499 | 0.482 | 0.565 | 0.733 | 0.664 | 0.639 | 0.629 | 0.657 | 1.02 | 0.886 | 0.937 | 0.876 | 0.77 |
| ABC-1 | – | – | – | – | – | 1.17 | 0.704 | 0.451 | 0.435 | 0.273 | 0.749 | 0.783 | 0.782 | 0.68 | 0.535 | 0.291 | 0.442 | 0.354 | 0.355 | 0.335 |
| NCI-H1793 | 0.417 | 0.426 | 0.508 | 0.376 | 0.294 | 0.153 | 0.172 | 0.187 | 0.185 | 0.17 | 0.396 | 0.345 | 0.316 | 0.382 | 0.329 | – | – | – | – | – |
| NCI-H1623 | – | – | – | – | – | 0.548 | 0.469 | 0.457 | 0.507 | 0.433 | – | – | – | – | – | – | – | – | – | – |
